From US20160339022A1, “TREATMENT OF NEUROBLASTOMA WITH HISTONE DEACETYLASE INHIBITORS” (Acetylon Pharmaceuticals Inc., priority 2015, published 2016)

How the values were obtained:
[1] = system: neuroblastoma cells; test: Morphology changes / dendrite outgrowth by inverted microscope; type: cell-based; details: 3, 5 and 7 days
Protocol: Cells were cultured for 3, 5, and 7 days with the indicated treatments. Images were captured on an inverted microscope.

[2] = system: SK-N-BE(2) cells; test: Microarray gene expression and gene set enrichment analysis; type: cell-based, Homo sapiens; details: 3 μM Compound B, 1 μM ATRA or combination, microarray 48 hr, fold relative to the DMSO control group
Protocol: Gene expression from cells treated with ATRA single agent and combination of ATRA and HDAC1/2i were assessed at 2 hrs and 48 hrs of treatment (FIG. 12A). […] A function analysis of the data using the Ingenuity IPA platform was performed by Qiagen; overlap is observed in the top hits between treatment groups.
Genes that statistically increase over 2-fold relative to the DMSO control were mapped on a Venn diagram (FIG. 12B).
Neuroblastoma cell line SK-N-BE(2) cells were treated with 3 μM Compound B, 1 μM ATRA, or a combination of both at 37° C. over 2 hours (FIG. 12A) or 48 hours (FIG. 12B) and compared to the solvent (DMSO) control.

[3] = system: neuroblastoma cells; test: Cell cycle analysis (Click-iT EdU and FxCycle PI/RNase staining); type: cell-based; details: 7 days
Protocol: Cells were cultured for 7 days with the indicated treatments and then stained with the Invitrogen Click-iT EdU kit and the Invitrogen FxCycle […] kits to assess frequency of cells in each stage of the cell cycle. […] The effect is enhanced by Compound B in a dose dependent manner.
In combination with ATRA, the effect on p21 is enhanced at concentrations that induce gene expression changes consistent with differentiation. At 7 days of treatment, combination effects are observed on the cell cycle, with a decreasing frequency of s-phase cells and an increasing sub-G1 population (FIG. 6B). […] EDU is increased in cells in s-phase while PI intensity indicates relative levels of DNA. Using these metrics, we illustrate the frequency of cells in the indicated states of the cell cycle.

[4] = system: SK-N-BE(2) cells; test: Cell viability (Promega CellTiter Glo assay); type: cell-based
Protocol: (§1) Cells were cultured for 48 hours at the indicated concentration of drug, and then cell viability was measured by Promega CellTiter Glo assay and caspase activity was measured by Promega Caspase3/7 Glo assay. […] Anti-tumor activity is evident at 3 μM of treatment.

[5] = system: neuroblastoma cells; details: MTS assay, FIGS. 27 and 28
Protocol: Viable cells were measured in an MTS assay and the combination index (CI) was calculated using the Chou-Talaay method.

[6] = system: SK-N-BE2 cells; test: Levels of proteins related to cell-cycle progression; type: cell-based; details: 3 days in culture
Protocol: The levels of proteins related to cell-cycle progression were assessed following treatment (SK-N-BE2 cells; 3 days in culture) with DMSO (control), Compound B alone, ATRA alone, and Compound B in combination with ATRA. p21 is increased by ATRA and enhanced by Compound B. Cyclin D1 is decreased in the combination setting relative to ATRA as a single agent. CDK2 and CDK4 are decreased in the combination setting with Compound B and ATRA.

[7] = system: AKT and c-RAF; test: Levels of AKT and c-RAF; type: cell-based; details: SK-N-BE2 cells; 3 days in culture
Protocol: The levels of AKT and c-RAF were assessed following treatment (SK-N-BE2 cells; 3 days in culture) with DMSO (control), Compound B alone, ATRA alone, and Compound B in combination with ATRA. Activated AKT is increased by ATRA and reduced in the combination setting with Compound B. Compound B as a single agent, and in combination with ATRA, decreases cRAF phosphorylation at residue Ser259.

[8] = system: retinoic acid receptor (RAR); test: Retinoic acid receptor ChIP-seq; type: cell-based; details: 3 μM Compound B, 48 hours
Source text: Retinoic acid receptor active binding sites defined in any individual treatment group by ChIP-seq at 48 hrs after treatment were stacked (y-axis) and aligned to the center of the binding peak (x-axis) (FIG. 13). […] Many of the genes found near region 1 binding sites are involved in regulation of retinoid signaling and are transcription factors that drive differentiation (Table 10).
Regions 1-7 of FIG. 13 are defined relative to DMSO: 1, [Combo] Increased; 2, [ATRA] Increased; 3, [ATRA] [Combo] Increased; 4, [Combo] [ATRA] [Compound B] Increased; 5, [Combo] [ATRA] Decreased; 6, [Compound B] Decreased; and 7, [Compound B] [Combo] [ATRA] Decreased.
Neuroblastoma cell line SK-N-BE(2) cells were treated with 3 μM Compound B, 1 μM ATRA, or a combination of both at 37° C. over 48 hours and compared to the solvent (DMSO) control. Antibodies to pan-retinoic acid receptor were used to pull down DNA associated with the receptor binding and sequenced. Lists of binding regions were mapped to the chromosome and “associated” with a given gene if the binding region was located within 10,000 bp up- or down-stream of the gene in question. Binding regions were represented as a heatmap where the sites were stacked on the y-axis across treatments, the “0” mark on the x-axis is the center of the binding peak and the intensity of signal indicated by color. The bracketed regions are areas of statistical significance relative to the DMSO control as indicated on the plot.
Table 12 lists the genes returned when the following conditions are met: 1) combo peak height >4 fold relative to the DMSO control group, and 2) combo expression >4 fold relative to the DMSO control group.

[9] = system: SK-N-BE(2) cells; test: Caspase activity (Promega Caspase3/7 Glo assay); type: cell-based; details: 1 μM, 48 hours
Protocol: as §1

[10] = system: neuroblastoma cells; test: Neuroblastoma proliferation, manual cell counts over 7 days; type: cell-based; details: 0.75 μM and 2 μM, counted at days 3, 5 and 7
Protocol: Cells were cultured over a 7 day period and manually counted at days 3, 5, and 7.

[11] = target: HDAC1 (Homo sapiens, UniProt Q13547); test: Biochemical activity of isoform-selective HDAC inhibitors, HDAC1; details: biochemical assay
[12] = system: neuroblastoma cells; test: Long term growth assay (15, 20, 25 days, Crystal Violet); type: cell-based; details: 1 μM of exposure, single agent; FIG. 11
Protocol: Cells were cultured for 15, 20 or 25 days with the indicated treatments. Cells were imaged on an inverted microscope at days 15 and 20. On day 25, the cells were stained with Crystal Violet dye and imaged by cell phone camera Importantly, the combination of ATRA and Compound B suppressed the growth of ATRA-resistant colonies.
Cells were cultured for 15, 20 or 25 days with the indicated treatments. Cells were imaged on an inverted microscope at days 15 and 20. On day 25, the cells were stained with Crystal Violet dye and imaged.
Cells were cultured for 15, 20 or 25 days with the indicated treatments. Cells were imaged on an inverted microscope at days 15 and 20. On day 25, the cells were stained with Crystal Violet dye and imaged. It was observed that the combination activity is mediated by HDAC1/2i.
Neuroblastoma cells were treated with Compound B or the HDAC3-selective inhibitor Compound C in a long term growth assay.

[13] = target: HDAC2 (Homo sapiens, UniProt Q92769); test: Biochemical activity of isoform-selective HDAC inhibitors, HDAC2; details: biochemical assay
[14] = system: IMR-32 tumors; test: IMR-32 neuroblastoma tumor growth in NUDE mice; type: in vivo; details: IMR-32 tumors in NUDE mice, orally once daily, 5/2 on/off schedule
Protocol: IMR-32 tumors were implanted in NUDE mice and Compound E and retinoic acid was administered orally once daily at the indicated doses on a 5/2 on/off schedule.

[15] = SK-N-BE(2) cells, 1 μM ATRA or combination, fold relative to the DMSO control group

HDAC1, sequence (Q13547 whole entry, canonical isoform): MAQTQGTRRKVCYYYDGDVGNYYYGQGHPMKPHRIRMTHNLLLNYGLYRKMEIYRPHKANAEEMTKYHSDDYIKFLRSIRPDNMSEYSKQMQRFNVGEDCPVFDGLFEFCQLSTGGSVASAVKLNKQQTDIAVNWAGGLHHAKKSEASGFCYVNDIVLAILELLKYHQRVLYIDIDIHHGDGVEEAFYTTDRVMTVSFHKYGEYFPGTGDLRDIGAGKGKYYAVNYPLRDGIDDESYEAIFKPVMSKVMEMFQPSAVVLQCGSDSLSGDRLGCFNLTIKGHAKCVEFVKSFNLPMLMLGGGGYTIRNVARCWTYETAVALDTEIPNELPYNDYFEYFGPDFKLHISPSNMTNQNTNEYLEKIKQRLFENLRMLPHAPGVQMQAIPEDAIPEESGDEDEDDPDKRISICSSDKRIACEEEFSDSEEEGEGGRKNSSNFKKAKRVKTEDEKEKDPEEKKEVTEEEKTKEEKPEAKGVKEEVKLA
HDAC2, sequence (Q92769 whole entry, canonical isoform): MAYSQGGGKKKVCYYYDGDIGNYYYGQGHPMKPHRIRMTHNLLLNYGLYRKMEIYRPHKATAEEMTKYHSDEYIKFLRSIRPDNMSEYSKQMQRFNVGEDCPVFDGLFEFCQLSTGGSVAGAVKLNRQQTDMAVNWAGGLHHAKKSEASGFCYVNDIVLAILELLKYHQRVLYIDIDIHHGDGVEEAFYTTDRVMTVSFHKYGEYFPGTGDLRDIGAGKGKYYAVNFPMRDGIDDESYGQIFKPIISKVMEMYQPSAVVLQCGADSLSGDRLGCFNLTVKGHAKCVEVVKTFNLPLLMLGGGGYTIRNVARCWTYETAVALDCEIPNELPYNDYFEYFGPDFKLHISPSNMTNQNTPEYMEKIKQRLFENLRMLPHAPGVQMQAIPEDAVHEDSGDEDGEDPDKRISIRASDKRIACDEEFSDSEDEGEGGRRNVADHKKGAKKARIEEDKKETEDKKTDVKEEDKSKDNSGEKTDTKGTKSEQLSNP

Structure (SMILES): CC1=C(/C=C/C(C)=C/C=C/C(C)=C/C(=O)O)C(C)(C)CCC1 [ATRA, all-trans-retinoic acid, reference compound]
- morphology / dendrite outgrowth [1]: caused the outgrowth of dendrites over time
- Gene Expression Change, ACSL3 [2]: 1.68
- Gene Expression Change, ATP7A [2]: 4.30
- Gene Expression Change, CDKN1A [2]: 1.25
- Gene Expression Change, CRABP2 [2]: 12.15
- Gene Expression Change, CTSH [2]: 2.40
- Gene Expression Change, CYP26A1 [2]: 7.84
- Gene Expression Change, CYP26B1 [2]: 116.67
- Gene Expression Change, DHRS3 [2]: 24.14
- Gene Expression Change, DUSP6 [2]: 8.59
- Gene Expression Change, ETS1 [2]: 3.50
- Gene Expression Change, HSPA5 [2]: 1.48
- Gene Expression Change, IER3 [2]: 3.75
- Gene Expression Change, NFKBIZ [2]: 2.85
- Gene Expression Change, PCDH18 [2]: 3.98
- Gene Expression Change, PTGER2 [2]: 2.48
- Gene Expression Change, RARB [2]: 3.91
- Gene Expression Change, RET [2]: 10.78
- cell cycle stage frequency, single agent [3]: reduces s-phase frequency and increases the sub-G1 population
- effect of added ATRA on HDAC1/2i mediated toxicity ([4]; addition of 1 μM or 3 μM of ATRA to Compound B, FIG. 2A): little effect
- cytotoxic effect on neuroblastoma cells as a single agent [5]: has a cytotoxic effect
- p21 level [6]: increased
- activated AKT [7]: increased
- RAR Binding (Peak Height), ACSL3 [8, 15]: 1.00
- RAR Binding (Peak Height), ATP7A [8, 15]: 4.60
- RAR Binding (Peak Height), CDKN1A [8, 15]: 4.75
- RAR Binding (Peak Height), CRABP2 [8, 15]: 3.15
- RAR Binding (Peak Height), CTSH [8, 15]: 5.42
- RAR Binding (Peak Height), CYP26A1 [8, 15]: 7.00
- RAR Binding (Peak Height), CYP26B1 [8, 15]: 11.50
- RAR Binding (Peak Height), DHRS3 [8, 15]: 7.50
- RAR Binding (Peak Height), DUSP6 [8, 15]: 4.00
- RAR Binding (Peak Height), ETS1 [8, 15]: 3.99
- RAR Binding (Peak Height), HSPA5 [8, 15]: 2.00
- RAR Binding (Peak Height), IER3 [8, 15]: 6.83
- RAR Binding (Peak Height), NFKBIZ [8, 15]: 4.00
- RAR Binding (Peak Height), PCDH18 [8, 15]: 3.50
- RAR Binding (Peak Height), PTGER2 [8, 15]: 2.13
- RAR Binding (Peak Height), RARB [8, 15]: 2.20
- RAR Binding (Peak Height), RET [8, 15]: 8.86
- RAR binding to chromatin ([8]; SK-N-BE(2), 1 μM ATRA, vs DMSO): increased RAR binding

Structure (SMILES): O=C(CCCCCCNC(=O)c1cnc(N(c2ccccc2)c2ccccc2Cl)nc1)NO [Compound A, 2-((2-chlorophenyl)(phenyl)amino)-N-(7-(hydroxyamino)-7-oxoheptyl)pyrimidine-5-carboxamide]
- caspase 3/7 induction [9]: Minimal
- proliferation, single agent [10]: can suppress proliferation similar to ATRA
- cell death ([4]; 1 μM, 48 hours): Minimal
- anti-tumor activity ([4]; 3 μM, 48 hours): evident
- cytotoxic effect on neuroblastoma cells as a single agent [5]: has a cytotoxic effect

Structure (SMILES): Nc1cc(F)ccc1NC(=O)c1cnc2c(C3CC3)c(N3CCNCC3)ccc2c1 [Compound C, N-(2-amino-4-fluorophenyl)-8-cyclopropyl-7-(piperazin-1-yl)quinoline-3-carboxamide]
- IC50 [11]: 2000 nM
- neuroblastoma cell growth in long term growth assay [12]: required higher concentrations to mediate a similar effect
- IC50 [13]: 619 nM

Structure (SMILES): Nc1ccc(-c2cccs2)cc1NC(=O)c1ccc2nc(N3CCNCC3)ccc2c1 [Compound E]
- tumor growth [14]: dose-dependent trend toward reduced tumor growth
